Test results taken from ChEMBL document CHEMBL4411257, “Inhibitors of Melanogenesis: An Updated Review” (J Med Chem, 2018).

How the values were obtained:
Tyrosinase [1] = biological target: T1, Tyrosinase (Mus musculus, UniProt P11344); test: Inhibition of tyrosinase in mouse B16 cells assessed as reduction in alpha-MSH induced melanin synthesis; assay type: cell-based
T1 sequence (P11344 whole entry): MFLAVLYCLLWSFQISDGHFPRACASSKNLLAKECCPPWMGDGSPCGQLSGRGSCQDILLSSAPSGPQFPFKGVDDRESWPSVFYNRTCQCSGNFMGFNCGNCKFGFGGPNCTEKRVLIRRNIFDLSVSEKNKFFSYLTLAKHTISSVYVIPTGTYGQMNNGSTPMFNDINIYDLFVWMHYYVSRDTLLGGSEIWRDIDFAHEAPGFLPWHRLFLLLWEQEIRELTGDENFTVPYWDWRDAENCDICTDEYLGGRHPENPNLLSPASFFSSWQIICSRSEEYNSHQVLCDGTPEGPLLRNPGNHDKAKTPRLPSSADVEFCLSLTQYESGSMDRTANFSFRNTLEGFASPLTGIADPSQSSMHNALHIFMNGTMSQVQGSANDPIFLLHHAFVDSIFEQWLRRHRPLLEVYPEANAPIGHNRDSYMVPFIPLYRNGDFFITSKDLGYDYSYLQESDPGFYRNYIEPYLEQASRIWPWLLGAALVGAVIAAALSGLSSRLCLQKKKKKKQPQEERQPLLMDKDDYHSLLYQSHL

[2] = biological target: T2, Tyrosinase (Mus musculus) (UniProt P11344); test: Inhibition of tyrosinase in mouse B16 cells assessed as reduction in alpha-MSH induced melanin synthesis at 30 uM relative to control; assay type: cell-based
T2 sequence (whole entry): T1 sequence (P11344 whole entry)

Tyrosinase [3] = biological target: T3, Tyrosinase (Homo sapiens, UniProt P14679)
T3 sequence (P14679 whole entry): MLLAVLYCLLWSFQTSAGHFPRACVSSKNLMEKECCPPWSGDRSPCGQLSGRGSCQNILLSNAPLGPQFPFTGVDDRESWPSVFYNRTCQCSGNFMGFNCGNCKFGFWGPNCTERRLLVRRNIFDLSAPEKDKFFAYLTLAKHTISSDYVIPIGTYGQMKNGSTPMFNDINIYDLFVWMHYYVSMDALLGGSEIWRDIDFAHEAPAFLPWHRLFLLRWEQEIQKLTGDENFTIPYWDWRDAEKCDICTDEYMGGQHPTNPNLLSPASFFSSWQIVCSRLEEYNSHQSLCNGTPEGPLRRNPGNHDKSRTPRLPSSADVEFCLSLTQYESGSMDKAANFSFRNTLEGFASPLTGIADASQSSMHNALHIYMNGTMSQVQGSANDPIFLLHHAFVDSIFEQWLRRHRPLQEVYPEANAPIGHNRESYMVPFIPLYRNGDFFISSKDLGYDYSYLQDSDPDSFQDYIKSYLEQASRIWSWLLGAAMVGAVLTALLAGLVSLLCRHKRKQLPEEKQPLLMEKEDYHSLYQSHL

Tyrosinase [4] = biological target: T1, Tyrosinase; test: Inhibition of tyrosinase in mouse B16 cells; assay type: cell-based
Tyrosinase [5] = biological target: T4, Tyrosinase (Agaricus bisporus, UniProt O42713); test: Inhibition of Agaricus bisporus tyrosinase using L-tyrosine as substrate after 30 mins by spectrophotometric analysis
T4 sequence (O42713 whole entry): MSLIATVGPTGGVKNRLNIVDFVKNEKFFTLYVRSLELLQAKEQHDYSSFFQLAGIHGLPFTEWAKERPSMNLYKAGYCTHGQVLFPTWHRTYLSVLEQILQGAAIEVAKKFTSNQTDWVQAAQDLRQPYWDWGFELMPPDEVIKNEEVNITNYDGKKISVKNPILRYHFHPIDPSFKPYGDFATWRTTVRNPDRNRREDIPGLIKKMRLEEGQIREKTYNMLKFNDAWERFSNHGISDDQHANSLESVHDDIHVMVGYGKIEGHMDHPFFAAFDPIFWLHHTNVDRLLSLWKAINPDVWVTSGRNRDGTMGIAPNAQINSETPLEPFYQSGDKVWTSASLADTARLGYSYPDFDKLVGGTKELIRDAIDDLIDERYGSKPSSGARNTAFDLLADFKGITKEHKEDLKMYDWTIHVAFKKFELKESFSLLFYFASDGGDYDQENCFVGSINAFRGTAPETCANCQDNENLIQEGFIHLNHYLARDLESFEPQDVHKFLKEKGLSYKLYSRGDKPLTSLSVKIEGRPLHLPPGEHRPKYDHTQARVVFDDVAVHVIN

Tyrosinase [6] = biological target: T4, Tyrosinase
Description: Inhibition of mushroom tyrosinase

[7] = biological target: T5, Tyrosinase (Homo sapiens) (UniProt P14679); test: Competitive inhibition of recombinant human tyrosinase expressed in baculovirus infected Sf9 cells using L-DOPA as substrate by double-reciprocal plot analysis
T5 sequence (whole entry): T3 sequence (P14679 whole entry)

Tyrosinase [8] = biological target: T3, Tyrosinase; test: Inhibition of tyrosinase (unknown origin) assessed as reduction in monophenolase activity
Tyrosinase [9] = biological target: T3, Tyrosinase; test: Inhibition of tyrosinase (unknown origin) assessed as reduction in diphenolase activity
Tyrosinase [10] = biological target: T1, Tyrosinase; assay type: cell-based
Description: Inhibition of tyrosinase in mouse B16F10 cells assessed as reduction in melanin synthesis after 2 hrs by spectrophotometric analysis

Tyrosinase [11] = biological target: T4, Tyrosinase; test: Inhibition of Agaricus bisporus tyrosinase using L-tyrosine as substrate after 60 mins by spectrophotometric analysis
[12] = biological target: T5, Tyrosinase (Homo sapiens); test: Inhibition of human tyrosinase at 1 uM using L-tyrosine as substrate after 30 mins by ELISA relative to control
Tyrosinase (Danio rerio) = biological target: T6, Tyrosinase (Danio rerio) (UniProt A0A8M1PAD4); test: Inhibition of tyrosinase in zebrafish assessed as reduction in pigmentation level at 10 uM
T6 sequence (whole entry): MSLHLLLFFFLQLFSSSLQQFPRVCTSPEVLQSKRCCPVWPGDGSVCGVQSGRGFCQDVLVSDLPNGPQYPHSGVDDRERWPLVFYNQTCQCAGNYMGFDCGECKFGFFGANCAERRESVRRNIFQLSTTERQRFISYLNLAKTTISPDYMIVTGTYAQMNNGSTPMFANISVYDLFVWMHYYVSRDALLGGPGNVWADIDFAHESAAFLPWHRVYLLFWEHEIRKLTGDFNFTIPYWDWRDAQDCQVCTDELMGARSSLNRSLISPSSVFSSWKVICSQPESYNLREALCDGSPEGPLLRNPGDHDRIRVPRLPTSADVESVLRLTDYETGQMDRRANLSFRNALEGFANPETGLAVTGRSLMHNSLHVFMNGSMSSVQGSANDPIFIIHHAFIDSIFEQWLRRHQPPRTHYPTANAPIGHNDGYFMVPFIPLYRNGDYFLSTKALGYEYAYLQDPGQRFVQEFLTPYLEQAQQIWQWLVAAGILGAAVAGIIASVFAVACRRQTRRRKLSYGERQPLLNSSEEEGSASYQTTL

[13] = biological target: T5, Tyrosinase (Homo sapiens); test: Inhibition of tyrosinase in human epidemal melanocytes assessed as reduction in melanin formation at 1 uM; assay type: cell-based
Tyrosinase [14] = biological target: T3, Tyrosinase; remark: listed apart in the source
[15] = biological target: T5, Tyrosinase (Homo sapiens); test: Potency index, ratio of kojic acid IC50 to compound IC50 for human tyrosinase
Tyrosinase [16] = biological target: T3, Tyrosinase; test: Inhibition of human tyrosinase after 120 mins
[17] = Cytotoxicity against mouse B16 cells assessed as cell viability at 1000 uM after 48 hrs by MTT assay relative to control; assay type: cell-based; conditions: read-out: Activity
Tyrosinase [18] = biological target: T3, Tyrosinase; test: biochemical
Description: Inhibition of recombinant human tyrosinase expressed in baculovirus infected Sf9 cells using L-DOPA as substrate by spectrophotometric analysis

[19] = biological target: T7, Tyrosinase (Agaricus bisporus) (UniProt O42713); test: Inhibition of Agaricus bisporus tyrosinase at 1000 uM relative to control
T7 sequence (whole entry): T4 sequence (O42713 whole entry)

Tyrosinase [20] = biological target: T1, Tyrosinase
Description: Inhibition of tyrosinase in mouse B16 cells assessed as reduction in melanin synthesis after 1 hr

## CC(C)=C/C=C1\O[C@@H]2CC(C)=CC(=O)[C@@H]2[C@]1(C)O [BISABOLANGELONE]
Tyrosinase [1]
  IC50: 9 µM
[2]
  inhibition: 99%

## C=C(C)C(=O)Cc1c(-c2ccc(O)cc2O)oc2c3c(cc(O)c2c1=O)OC(C)(C)C=C3
Tyrosinase [3]
  IC50: 290 µM

## OC[C@H]1O[C@@H](Oc2cc(O)cc(/C=C/c3ccc(O[C@@H]4O[C@H](CO)[C@@H](O)[C@H](O)[C@H]4O)cc3O)c2)[C@H](O)[C@@H](O)[C@@H]1O [MULBERROSIDE A]
Tyrosinase [4]
  IC50: > 100 µM

## Cc1ccc(S(=O)(=O)Oc2ccccc2/N=N/c2ccc(O)cc2O)cc1
Tyrosinase [5]
  IC50: 17.9 µM

## O=C1/C(=C/c2ccc(O)cc2)Oc2cccc(O)c21
Tyrosinase [6]
  IC50: 31.7 µM

## O=C1/C(=C/c2ccc(=O)n(O)c2)Oc2cc(O)ccc21
Tyrosinase [6]
  IC50: 1.5 µM
[7]
  Kic: 0.35 µM

## O=C1/C(=C/c2ccc(O)cc2)Oc2cc(O)ccc21
Tyrosinase [6]
  IC50: 38.4 µM

## CN(C)c1ccc(/C=C/C(=N\O)c2ccccc2O)cc1
Tyrosinase [3]
  IC50: 7.89 µM

## O=C(N[C@@H](Cc1ccccc1)C(=O)OCc1cc(=O)c(O)c[nH]1)OCc1ccccc1
Tyrosinase [8]
  IC50: 1.95 µM
Tyrosinase [9]
  IC50: 2.79 µM

## C[S+]([O-])c1ccc(-c2nc(-c3ccncc3)c(-c3ccc(F)cc3)[nH]2)cc1 (stereo not given) [SB-203580]
Tyrosinase [10]
  IC50: 0.034 µM

## N[C@@H](Cc1ccccc1)C(=O)N[C@@H](Cc1ccccc1)C(=O)OCc1cc(=O)c(O)c[nH]1
Tyrosinase [8]
  IC50: 8.97 µM
Tyrosinase [9]
  IC50: 26.2 µM

## COc1ccc(/C=N/c2ccccc2)cc1
Tyrosinase [11]
  IC50: 212 µM

## C=C1OC(=O)/C(=C\CCCCCCCCCCCCC)[C@H]1O
[12]
  inhibition: 50%
Tyrosinase (Danio rerio)
  inhibition: 30%
[13]
  inhibition: 40%

## CCCCc1ccc(O)cc1O [RUCINOL]
Tyrosinase [14]
  IC50: 21 µM
[15]
  Ratio IC50: 20

## Oc1cc(O)cc(-c2cc3ccc(O)cc3o2)c1 [MORACIN M]
Tyrosinase [3]
  IC50: 8 µM

## Oc1cc(O)cc(CCc2ccc(O)cc2O)c1
Tyrosinase [4]
  IC50: 0.3 µM

## CCCCCCn1cc(O)c(=O)cc1COC(=O)[C@@H](N)Cc1ccccc1
Tyrosinase [8]
  IC50: 19.2 µM
Tyrosinase [9]
  IC50: 42.8 µM

## Oc1ccc(-c2nc(-c3ccncc3)c(-c3ccc(F)cc3)[nH]2)cc1 [SB-202190]
Tyrosinase [10]
  IC50: 0.03 µM

## Oc1ccc(/N=C/c2ccc(O)c(O)c2)cc1
Tyrosinase [5]
  IC50: 17.2 µM

## O=C1/C(=C/c2ccc(O)cc2)Oc2cc(O)cc(O)c21
Tyrosinase [6]
  IC50: 38.7 µM

## Oc1ccc(/C=N/c2ccccc2)cc1
Tyrosinase [11]
  IC50: 145 µM

## COc1ccc(/N=C/c2ccc(O)cc2O)cc1
Tyrosinase [5]
  IC50: 51.5 µM

## O=C(O)/C=C/c1ccc(O)cc1 [COUMARIC ACID]
Tyrosinase [16]
  IC50: 3 µM

## CC(C)=CCC[C@](C)(O[C@@H]1O[C@H](CO[C@@H]2O[C@H](CO)[C@@H](O)[C@H](O)[C@H]2O)[C@@H](O)[C@H](O)[C@H]1O)[C@H]1CC[C@]2(C)[C@@H]1[C@H](O)C[C@@H]1[C@@]3(C)CC[C@H](O[C@@H]4O[C@H](CO)[C@@H](O)[C@H](O)[C@H]4O[C@@H]4O[C@H](CO)[C@@H](O)[C@H](O)[C@H]4O)C(C)(C)[C@@H]3CC[C@]12C [GINSENOSIDE RB1]
[17]
  viability at 48 h, 1000 µM: 4.67%

## CCCCCCCCCCCCC/C=C1\C(=O)O[C@@](C)(OC)[C@@H]1O
[12]
  inhibition: 50%
Tyrosinase (Danio rerio)
  inhibition: 25%
[13]
  inhibition: 40%

## Oc1cccc(/C=C/c2ccc(O)cc2O)c1
Tyrosinase [4]
  IC50: 0.8 µM

## O=C1/C(=C/c2ccc(=O)n(O)c2)Oc2cc(O)cc(O)c21
Tyrosinase [18]
  IC50: 30 µM

## COc1ccc(/N=C/c2ccc(O)c(O)c2)cc1
Tyrosinase [5]
  IC50: 61.7 µM

## Oc1ccc(/N=N/c2ccccc2O)cc1
Tyrosinase [5]
  IC50: 44.1 µM

## O=C1C[C@@H](c2ccc(O)cc2O)Oc2cc(O)cc(O)c21
Tyrosinase [3]
  IC50: 0.98 µM

## CC(C)=CCc1c(O)ccc(C[C@@H]2[C@H](c3c(O)ccc(C(=O)/C=C/c4ccc(O)cc4O)c3O)C=C(C)C[C@H]2c2ccc(O)cc2O)c1O
Tyrosinase [3]
  IC50: 4.62 µM

## COc1ccc(NC(=O)/C=C/c2ccc(O)c(O)c2)cc1
[19]
  inhibition: 36.8%

## CC(C)=CCc1c(O)ccc(C(=O)/C=C/c2ccc(O)cc2O)c1O [MORACHALCONE A]
Tyrosinase [3]
  IC50: 0.08 to 0.82 µM
Tyrosinase [20]
  IC50: 3.8 µM

## O=C(/C=C/c1ccc(O)cc1O)c1ccc(O)cc1O
Tyrosinase [3]
  IC50: 0.07 to 0.21 µM
Tyrosinase [20]
  IC50: 5 µM

## COc1cc([N+](=O)[O-])ccc1/C=C/C(=N\O)c1ccccc1O
Tyrosinase [3]
  IC50: 4.77 µM

## Oc1ccccc1/C=N/c1ccccc1 [2-((PHENYLIMINO)METHYL)PHENOL]
Tyrosinase [11]
  IC50: 250 µM

## Oc1ccc(/C=C/c2cc(O)cc(O)c2)cc1 [RESVERATROL]
Tyrosinase [3]
  IC50: 250 µM

## Oc1ccc(O)cc1 [HYDROQUINONE]
Tyrosinase [14]
  IC50: 4400 µM

## CCCCCCCCn1cc(O)c(=O)cc1COC(=O)[C@@H](N)Cc1ccccc1
Tyrosinase [8]
  IC50: 12.6 µM
Tyrosinase [9]
  IC50: 12.6 µM

## Cc1ccc(S(=O)(=O)Oc2ccccc2/N=N/c2ccc(O)cc2)cc1
Tyrosinase [5]
  IC50: 201 µM

## C/C(=C\Cc1c(O)ccc(C(=O)/C=C/c2ccc(O)cc2O)c1O)CO
Tyrosinase [3]
  IC50: 0.17 µM
Tyrosinase [20]
  IC50: 4 µM
